In one series the target is NDM-1 (Klebsiella pneumoniae, UniProt C7C422). Briefly: biochemical. It is filed as biochemical. To be noted: CCF2-FA substrate, 2 hours at 25° C; read-out: NDM-1 IC50. As to the method: (§1) Enzyme Activity: Determination of IC50
(§2) The Class B enzyme activities were measured in the presence of the test inhibitor in a fluorescence assay against a commercially available substrate consisting of a cephalosporin core linking 7-hydroxycoumarin to fluorescein (CCF2-FA). […] In a 384-well microplate, the test inhibitor was incubated with the metallo-β-lactamase enzyme and the substrate for 2 hours at 25° C. […] The IC50 value was determined from semi-logarithmic plots of enzyme inhibition versus inhibitor concentration, with a curve generated using a 4-parameter fit.

Series [1] concerns Klebsiella pneumoniae expressing VIM-1 (IHMA599644). It is filed as cell-based. To be noted: with imipenem 1 μg/ml, 95% inhibition of bacterial growth; for Klebsiella pneumoniae MITC95: VIM-1 (IHMA599644). As to the method: (§3) Antibiotic Potentiation Activity: Determination of Synergistic Concentration
(§4) The bacterial strains tested included the clinical strains Escherichia coli expressing NDM-1 (CLB30005, CLB30016), Serratia marcescens expressing IMP-1 (CL5741), and Klebsiella pneumoniae expressing VIM-1 (IHMA599644). Inhibitor activity was measured in the presence and absence of imipenem in a 384-well microplate.
(§5) The clinical strains CLB30016, CL5741 and IHMA599644 were grown on trypticase soy agar containing 5% sheep's blood. The bacteria on agar plates were incubated at 35° C. with humidity overnight. The following day, individual colonies from each clinical strain were picked and resuspended in 5 ml saline to attain an OD600 of […], for CLB30016, CL5741 and IHMA599644, respectively. These were further diluted 1:100 into 1.1×CAMHB and used to inoculate the test wells as described below.
(§6) Imipenem in 10 mM 3-(N-morpholino)propanesulfonic acid (MOPS, pH 7) was stored in single use aliquots at −80° C. […] On the day of the assay, 4 μl of antibiotic was added to 45 ul of bacteria followed by 1 μl of test compound and mixed by pipetting and with an orbital shaker. The concentration of antibiotic used in the assay was 1 μg/ml. Microplates were covered and incubated at 35° C. for 22 hours to 24 hours. At the end of the incubation, absorbance was determined using a spectrophotometer.
(§7) For example, in general, the compounds of Examples 1-379 were determined to restore susceptibility to imipenem for one or more of the test organisms at concentrations of 100 μM or less.

The subject of series [2] is Escherichia coli expressing NDM-1 (CLB30005, CLB30016). It counts as cell-based. To be noted: with imipenem 1 μg/ml, 95% inhibition of bacterial growth; for Escherichia coli MITC95: NDM-1 (CLB30016). Here is the method:
as §3, §4, §5, §6, §7

Series [3] has as its system Serratia marcescens expressing IMP-1 (CL5741). It is filed as cell-based. To be noted: with imipenem 1 μg/ml, 95% inhibition of bacterial growth; for Serratia marcescens MITC95: IMP-1 (CL5741). Here is the method: as §3, §4, §5, §6, §7
Series [4] relates to P. aeruginosa expressing IMP-1, efflux+ (MB9798). It counts as cell-based, Pseudomonas aeruginosa. Particulars: for P. aeruginosa expressing IMP-1, efflux+ (MB9798) MITC95: imipenem at 2 μg/mL, in the presence of a class A, C, D serine β-lactamase inhibitor closely related to relebactam; for Efflux ratio: ratio MITC95 PA_9798/MITC95 PA_9799. From the text: (§8) The strain background is Pseudomonas aeruginosa PAO1.

A further series deals with VIM-1 (Pseudomonas aeruginosa (strain ATCC 15692 / DSM 22644 / CIP 104116 / JCM 14847 / LMG 12228 / 1C / PRS 101 / PAO1), UniProt A0A0F7KYQ8). Briefly: biochemical. To be noted: CCF2-FA substrate, 2 hours at 25° C. Here is the method:
as §1, §2

Series [5] deals with P. aeruginosa expressing IMP-1, efflux− (MB9799). Briefly: Efflux: concentration of MBL inhibitor which restores susceptibility to imipenem. It is filed as cell-based, Pseudomonas aeruginosa. To be noted: imipenem at 2 μg/mL, in the presence of a class A, C, D serine β-lactamase inhibitor closely related to relebactam.
Description: as §8

Another series has as its target IMP-1 (Serratia marcescens, UniProt P52699). Briefly: biochemical. Particulars: CCF2-FA substrate, 2 hours at 25° C; read-out: IMP-1 IC50. It is filed as biochemical. Here is the method:
as §1, §2

IMP-1, sequence (P52699 whole entry, looked up, species assumed): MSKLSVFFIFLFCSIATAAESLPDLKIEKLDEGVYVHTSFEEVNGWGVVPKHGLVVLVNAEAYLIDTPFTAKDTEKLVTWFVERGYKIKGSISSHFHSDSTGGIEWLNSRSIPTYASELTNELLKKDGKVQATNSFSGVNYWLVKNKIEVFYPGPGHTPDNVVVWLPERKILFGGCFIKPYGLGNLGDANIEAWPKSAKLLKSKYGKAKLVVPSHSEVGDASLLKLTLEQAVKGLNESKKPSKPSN
NDM-1, sequence (C7C422 whole entry, looked up, species assumed): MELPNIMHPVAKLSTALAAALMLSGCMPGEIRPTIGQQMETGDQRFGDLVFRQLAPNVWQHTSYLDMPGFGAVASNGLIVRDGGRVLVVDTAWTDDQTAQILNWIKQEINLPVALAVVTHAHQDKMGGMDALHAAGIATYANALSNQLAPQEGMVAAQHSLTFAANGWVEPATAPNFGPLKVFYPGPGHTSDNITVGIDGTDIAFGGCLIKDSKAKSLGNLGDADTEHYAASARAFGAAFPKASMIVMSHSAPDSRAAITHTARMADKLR

For orientation: IC50 means the concentration that inhibits the measured activity by half. On to `NC[C@H](O)CS(=O)(=O)c1ccc(-c2cccc3sc(N)nc23)c(-c2nn[nH]n2)c1S(N)(=O)=O` [Example 281, 6-((S)-3-amino-2-hydroxypropylsulfonyl)-3-(2-aminobenzo[d]thiazol-4-yl)-2-(2H-tetrazol-5-yl)benzenesulfonamide], for which the values for the IC50 on NDM-1 and against VIM-1 were 0.0561 nM and 0.134 nM, respectively. The “Klebsiella pneumoniae MITC95” value in series [1] was 1.563 µM. Moreover, the “Escherichia coli MITC95” value in series [2] came to 0.7813 µM. The “Serratia marcescens MITC95” value in series [3] stood at 0.7813 µM. In addition, in series [4], the “P. aeruginosa expressing IMP-1, efflux+ (MB9798) MITC95” value was found to be 0.3906 µM. Further, in series [5], the “P. aeruginosa expressing IMP-1, efflux− (MB9799) MITC95” value worked out at 0.7813 µM.

For `Nc1nc2nccc(-c3ccc(S(=O)(=O)C4CNC4)c(S(N)(=O)=O)c3-c3nnn[nH]3)c2[nH]1` [Example 302], the “Klebsiella pneumoniae MITC95” value in series [1] was found to be 6.25 µM. The “Escherichia coli MITC95” value in series [2] is 3.125 µM. Moreover, the “Serratia marcescens MITC95” value in series [3] came out at 12.5 µM. In addition, in series [4], the “P. aeruginosa expressing IMP-1, efflux+ (MB9798) MITC95” value stood at 200 µM and the Efflux ratio came to 16.00. Besides, the midpoint of inhibition against VIM-1, the IC50, lay at 9.99 nM. Also, the “P. aeruginosa expressing IMP-1, efflux− (MB9799) MITC95” value in series [5] amounted to 12.5 µM.

For the molecule `Nc1nc2ccc(-c3ccc(S(=O)(=O)C4CCNCC4)c(S(N)(=O)=O)c3-c3nn[nH]n3)cc2[nH]1` [Example 41, 3-(2-amino-3H-benzo[d]imidazol-5-yl)-6-(piperidin-4-ylsulfonyl)-2-(2H-tetrazol-5-yl)benzenesulfonamide], in series [1], the “Klebsiella pneumoniae expressing VIM-1 (IHMA599644) MITC95” value was 1.563 µM. In series [2], the “Escherichia coli expressing NDM-1 (CLB30016) MITC95” value turned out to be 1.563 µM. Besides, the “Serratia marcescens expressing IMP-1 (CL5741) MITC95” value in series [3] was 1.563 µM. For the same molecule, in series [4], the “P. aeruginosa expressing IMP-1, efflux+ (MB9798) MITC95” value worked out at 3.125 µM and the Efflux ratio is 4.00. In addition, the midpoint of inhibition on VIM-1, the IC50, lay at 0.171 nM. Further, the “P. aeruginosa expressing IMP-1, efflux− (MB9799) MITC95” value in series [5] was determined as 0.7813 µM.

Take `Nc1nc2cc(F)cc(-c3ccc(S(=O)(=O)C4CNC4)c(S(N)(=O)=O)c3-c3nnn[nH]3)c2[nH]1` [Example 296, 3-(2-amino-5-fluoro-1H-benzo[d]imidazol-7-yl)-6-(azetidin-3-ylsulfonyl)-2-(1H-tetrazol-5-yl)benzenesulfonamide]: the “Klebsiella pneumoniae MITC95” value in series [1] came out at 1.172 µM. The “Escherichia coli MITC95” value in series [2] came out at 0.5859 µM. For the same molecule, in series [3], the “Serratia marcescens MITC95” value was determined as 0.7813 µM. For the same molecule, in series [4], the “P. aeruginosa expressing IMP-1, efflux+ (MB9798) MITC95” value turned out to be 0.7813 µM and the Efflux ratio turned out to be 1.00. Further, it took 0.227 nM to reach half-maximal inhibition on VIM-1 (IC50). The “P. aeruginosa expressing IMP-1, efflux− (MB9799) MITC95” value in series [5] came out at 0.7813 µM.

Take `NS(=O)(=O)c1c(S(=O)(=O)C2CNC2)ccc(-c2ccc(CO)nc2)c1-c1nnn[nH]1.O=C(O)C(F)(F)F` [Example 111, 3-((4-(6-(hydroxymethyl)pyridin-3-yl)-2-sulfamoyl-3-(1H-tetrazol-5-yl)phenyl)sulfonyl)azetidin-1-ium 2,2,2-trifluoroacetate]: the “Klebsiella pneumoniae expressing VIM-1 (IHMA599644) MITC95” value in series [1] is 6.25 µM. In addition, the “Escherichia coli expressing NDM-1 (CLB30016) MITC95” value in series [2] worked out at 3.125 µM. In addition, the “Serratia marcescens expressing IMP-1 (CL5741) MITC95” value in series [3] is 3.125 µM. Besides, in series [4], the “P. aeruginosa expressing IMP-1, efflux+ (MB9798) MITC95” value came to 6.25 µM and the Efflux ratio was found to be 4.00. Inhibition on VIM-1 was half-maximal at 0.96 nM (IC50). The “P. aeruginosa expressing IMP-1, efflux− (MB9799) MITC95” value in series [5] came out at 1.563 µM.

Consider `NC(=O)N1CC(S(=O)(=O)c2ccc(-c3ccc(NS(=O)(=O)C4CC4)cc3)c(-c3nn[nH]n3)c2S(N)(=O)=O)C1` [Example 246, 3-((4′-(cyclopropanesulfonamido)-3-sulfamoyl-2-(2H-tetrazol-5-yl)-[1,1′-biphenyl]-4-yl)sulfonyl)azetidine-1-carboxamide], for which the IC50 at IMP-1 is 0.103 nM; at VIM-1, 0.139 nM. The “Klebsiella pneumoniae MITC95” value in series [1] is 25 µM. Also, the “Escherichia coli MITC95” value in series [2] came to 50 µM. Further, the “Serratia marcescens MITC95” value in series [3] turned out to be 12.5 µM. For the same molecule, the “P. aeruginosa expressing IMP-1, efflux+ (MB9798) MITC95” value in series [4] was 12.5 µM. For the same molecule, in series [5], the “P. aeruginosa expressing IMP-1, efflux− (MB9799) MITC95” value was found to be 3.125 µM.

(Values after patent publication US10227331B2 (priority 2015, dated 2019).)
